This passage reports IC50 results from patent US20170334899A1, “AMINO-SUBSTITUTED ISOTHIAZOLES” (Bayer Pharma Aktiengesellschaft, priority 2014, published 2017).

For the experiment, the target named is T1, human kinase Mps-1 (Homo sapiens, UniProt P33981).
T1 construct: N-terminally GST-tagged human full length recombinant Mps-1 kinase; GST (N); purchased Invitrogen, Karslruhe, Germany PV4071
T1 sequence (P33981 1-857): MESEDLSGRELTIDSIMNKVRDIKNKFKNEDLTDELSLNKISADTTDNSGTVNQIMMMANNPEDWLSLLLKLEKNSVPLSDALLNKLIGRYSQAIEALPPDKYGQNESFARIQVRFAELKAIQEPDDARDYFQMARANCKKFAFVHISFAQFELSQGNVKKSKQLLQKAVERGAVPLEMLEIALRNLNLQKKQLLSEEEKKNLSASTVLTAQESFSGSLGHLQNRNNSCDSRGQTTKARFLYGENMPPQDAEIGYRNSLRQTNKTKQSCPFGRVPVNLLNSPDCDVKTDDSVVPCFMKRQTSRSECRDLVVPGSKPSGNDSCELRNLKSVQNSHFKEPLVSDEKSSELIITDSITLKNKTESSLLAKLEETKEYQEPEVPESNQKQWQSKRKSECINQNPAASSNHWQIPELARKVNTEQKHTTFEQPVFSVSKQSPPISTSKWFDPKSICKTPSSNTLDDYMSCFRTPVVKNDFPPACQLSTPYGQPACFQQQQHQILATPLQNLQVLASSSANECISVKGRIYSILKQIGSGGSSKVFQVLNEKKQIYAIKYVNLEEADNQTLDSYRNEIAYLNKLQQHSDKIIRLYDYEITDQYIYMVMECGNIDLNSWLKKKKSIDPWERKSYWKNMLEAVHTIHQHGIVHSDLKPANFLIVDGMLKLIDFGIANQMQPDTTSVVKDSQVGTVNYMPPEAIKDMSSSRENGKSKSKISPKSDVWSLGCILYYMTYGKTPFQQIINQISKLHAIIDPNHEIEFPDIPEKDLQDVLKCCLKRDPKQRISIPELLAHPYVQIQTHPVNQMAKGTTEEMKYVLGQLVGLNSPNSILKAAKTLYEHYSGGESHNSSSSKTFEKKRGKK
The experiment in a line: Mps-1 kinase assay (TR-FRET). Particulars: Mps-1 TR-FRET kinase assay; avg; read-out: Mps1 avg (IC50 [mol/l]). Type of experiment: biochemical. Put shortly:
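GST-tagged full-length recombinant human Mps-1 (~0.5 nM) pre-incubated 15 min with compound, then reacted 60 min at 22 °C with 10 μM ATP and 1 μM biotinylated peptide in Hepes pH 7.7 buffer. EDTA-stopped; TR-FRET (Eu anti-phospho-Ser/Thr to SA-XLent) 665/620 nm ratio normalised to no-inhibitor and no-enzyme controls.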
Background: TR-FRET usually uses a lanthanide donor and a delayed reading to cut background.

As to `Cc1nsc(Nc2cnc(C(F)(F)F)cn2)c1C(=O)Nc1ccc(OC2CCN(C(=O)OC(C)(C)C)CC2)c(F)c1` [Example 217, tert-butyl 4-(2-fluoro-4-{[(3-methyl-5-{[5-(trifluoromethyl)pyrazin-2-yl]amino}-1,2-thiazol-4-yl)carbonyl]amino}phenoxy)piperidine-1-carboxylate], the IC50 was greater than 20 µM. Regarding `Cc1nsc(Nc2cc(C#N)ccn2)c1C(=O)Nc1cccc(C(=O)NC2CC2)c1` [Example 175, 5-[(4-cyanopyridin-2-yl)amino]-N-[3-(cyclopropylcarbamoyl)phenyl]-3-methyl-1,2-thiazole-4-carboxamide], the IC50 was greater than 20 µM. For `Cc1nsc(Nc2cncc(C(F)(F)F)n2)c1C(=O)Nc1ccc(OCCNC(=O)OC(C)(C)C)c(F)c1` [Example 216, tert-butyl [2-(2-fluoro-4-{[(3-methyl-5-{[6-(trifluoromethyl)pyrazin-2-yl]amino}-1,2-thiazol-4-yl)carbonyl]amino}phenoxy)ethyl]carbamate] the value was greater than 20 µM. On to `Cc1nsc(Nc2cncc(C(F)(F)F)n2)c1C(=O)Nc1ccc(OC2CCN(CCF)CC2)nc1` [Example 14, N-(6-{[1-(2-Fluoroethyl)piperidin-4-yl]oxy}pyridin-3-yl)-3-methyl-5-{[6-(trifluoro-methyl)pyrazin-2-yl]amino}-1,2-thiazole-4-carboxamide], for which the IC50 is no less than 20 µM. For `Cc1nsc(Nc2cnc3ccccc3n2)c1C(=O)Nc1ccc(F)c(C(N)=O)c1` [Example 202, N-(3-carbamoyl-4-fluorophenyl)-3-methyl-5-(quinoxalin-2-ylamino)-1,2-thiazole-4-carboxamide] the value was 5.8 µM; for `Cc1nsc(Nc2cc(C#N)ccn2)c1C(=O)Nc1ccc(Oc2cccc(C(F)(F)F)c2)nc1` [Example 230, 5-[(4-cyanopyridin-2-yl)amino]-3-methyl-N-{6-[3-(trifluoromethyl)phenoxy]pyridin-3-yl}-1,2-thiazole-4-carboxamide], greater than 20 µM.

As for `Cc1nsc(Nc2cnc3ccccc3n2)c1C(=O)Nc1cccc(NC(=O)C(C)(C)C)c1` [Example 186, N-{3-[(2,2-dimethylpropanoyl)amino]phenyl}-3-methyl-5-(quinoxalin-2-ylamino)-1,2-thiazole-4-carboxamide], the IC50 is greater than 20 µM. Turning to `CCN(CC)CCNC(=O)c1cccc(NC(=O)c2c(C)nsc2Nc2cnccn2)c1` [Example 247, N-(3-{[2-(diethylamino)ethyl]carbamoyl}phenyl)-3-methyl-5-(pyrazin-2-ylamino)-1,2-thiazole-4-carboxamide], the IC50 was greater than 20 µM. For `Cc1nsc(Nc2ccc(C#N)cn2)c1C(=O)Nc1ccc(S(C)(=O)=O)cc1` [Example 246, 5-[(5-cyanopyridin-2-yl)amino]-3-methyl-N-[4-(methylsulfonyl)phenyl]-1,2-thiazole-4-carboxamide] the value was greater than 20 µM.

Consider `Cc1nsc(Nc2ccc(C#N)cn2)c1C(=O)Nc1ccc(F)c(C(N)=O)c1` [Example 203, N-(3-carbamoyl-4-fluorophenyl)-5-[(5-cyanopyridin-2-yl)amino]-3-methyl-1,2-thiazole-4-carboxamide], for which the IC50 is greater than 20 µM. With `COc1ccc(NC(=O)c2c(C)nsc2Nc2cnc3ccccc3n2)c(CC#N)n1` [Example 235, N-[2-(cyanomethyl)-6-methoxypyridin-3-yl]-3-methyl-5-(quinoxalin-2-ylamino)-1,2-thiazole-4-carboxamide], the IC50 was 12 µM. Next, `Cc1nsc(Nc2cnc3ccccc3n2)c1C(=O)Nc1ccc(Oc2cccnc2)nc1` [Example 231, 3-methyl-N-[6-(pyridin-3-yloxy)pyridin-3-yl]-5-(quinoxalin-2-ylamino)-1,2-thiazole-4-carboxamide]: greater than 20 µM; `Cc1nsc(Nc2cncc(C(F)(F)F)n2)c1C(=O)Nc1cccc(S(C)(=O)=O)c1` [Example 194, 3-methyl-N-[3-(methylsulfonyl)phenyl]-5-{[6-(trifluoromethyl)pyrazin-2-yl]amino}-1,2-thiazole-4-carboxamide]: greater than 10 µM; `Cc1nsc(Nc2cncc(C(F)(F)F)n2)c1C(=O)Nc1ccc(C(=O)NC2CCN(C(=O)OC(C)(C)C)CC2)cc1` [Example 222, tert-butyl 4-[(4-{[(3-methyl-5-{[6-(trifluoromethyl)pyrazin-2-yl]amino}-1,2-thiazol-4-yl)carbonyl]amino}benzoyl)amino] piperidine-1-carboxylate]: greater than 20 µM. With `Cc1nsc(Nc2cnc3ccccc3n2)c1C(=O)Nc1ccc(NCCNC(=O)OC(C)(C)C)nc1` [Example 244, tert-butyl (2-{[5-({[3-methyl-5-(quinoxalin-2-ylamino)-1,2-thiazol-4-yl]carbonyl}amino)pyridin-2-yl]amino}ethyl)carbamate], the IC50 is greater than 20 µM.

Turning to `CNC(=O)c1ccc(NC(=O)c2c(C)nsc2Nc2ccc(C#N)cn2)cc1F` [Example 208, 5-[(5-cyanopyridin-2-yl)amino]-N-[3-fluoro-4-(methylcarbamoyl)phenyl]-3-methyl-1,2-thiazole-4-carboxamide], the IC50 was greater than 20 µM. Next, `Cc1nsc(Nc2cncc(C(F)(F)F)n2)c1C(=O)Nc1ccc(OCCN)nc1` [Example 196, N-[6-(2-aminoethoxy)pyridin-3-yl]-3-methyl-5-{[6-(trifluoromethyl)pyrazin-2-yl]amino}-1,2-thiazole-4-carboxamide]: greater than 20 µM; `Cc1nsc(Nc2cncc(C(F)(F)F)n2)c1C(=O)Nc1ccc(OC2CCN(CC(F)(F)F)CC2)nc1` [Example 16, 3-Methyl-N-(6-{[1-(2,2,2-trifluoroethyl)piperidin-4-yl]oxy}pyridin-3-yl)-5-{[6-(trifluoromethyl)pyrazin-2-yl]amino}-1,2-thiazole-4-carboxamide]: no less than 20 µM.

Regarding `Cc1nsc(Nc2cnc3ccccc3n2)c1C(=O)Nc1ccc(OCCC(=O)OC(C)(C)C)nc1` [Example 198, tert-butyl 3-{[5-({[3-methyl-5-(quinoxalin-2-ylamino)-1,2-thiazol-4-yl]carbonyl}amino)pyridin-2-yl]oxy}propanoate], the IC50 was 4.6 µM. On to `CCN(CC)CCNC(=O)c1cccc(NC(=O)c2c(C)nsc2Nc2cc(C#N)ccn2)c1` [Example 174, 5-[(4-cyanopyridin-2-yl)amino]-N-(3-{[2-(diethylamino)ethyl]carbamoyl}phenyl)-3-methyl-1,2-thiazole-4-carboxamide], for which the IC50 was greater than 20 µM. Next, `Cc1nsc(Nc2cnc(C(F)(F)F)cn2)c1C(=O)Nc1cccc(S(C)(=O)=O)c1` [Example 195, 3-methyl-N-[3-(methylsulfonyl)phenyl]-5-{[5-(trifluoromethyl)pyrazin-2-yl]amino}-1,2-thiazole-4-carboxamide]: greater than 20 µM. For the compound `Cc1nsc(Nc2ccc(C#N)cn2)c1C(=O)Nc1ccc(OCCC(=O)OC(C)(C)C)nc1` [Example 199, tert-butyl 3-({5-[({5-[(5-cyanopyridin-2-yl)amino]-3-methyl-1,2-thiazol-4-yl}carbonyl)amino]pyridin-2-yl}oxy)propanoate], the IC50 is greater than 20 µM.

With `Cc1nsc(Nc2cnc3ccccc3n2)c1C(=O)Nc1ccc(NC2CCCN(C(=O)OC(C)(C)C)C2)nc1` (centres unmarked) [Example 241, tert-butyl 3-{[5-({[3-methyl-5-(quinoxalin-2-ylamino)-1,2-thiazol-4-yl]carbonyl}amino)pyridin-2-yl]amino}piperidine-1-carboxylate], the IC50 was greater than 20 µM. Turning to `Cc1nsc(Nc2cnc(C(F)(F)F)cn2)c1C(=O)Nc1ccc(C(=O)NCCN2CCCC(F)C2)cc1` (centres unmarked) [Example 213, N-(4-{[2-(3-fluoropiperidin-1-yl)ethyl]carbamoyl}phenyl)-3-methyl-5-{[5-(trifluoromethyl)pyrazin-2-yl]amino}-1,2-thiazole-4-carboxamide], the IC50 is greater than 20 µM. Next, `CC(=O)N1CCC(Oc2ccc(NC(=O)c3c(C)nsc3Nc3cncc(C(F)(F)F)n3)cn2)CC1` [Example 17, N-{6-[(1-Acetylpiperidin-4-yl)oxy]pyridin-3-yl}-3-methyl-5-{[6-(trifluoromethyl)-pyrazin-2-yl]amino}-1,2-thiazole-4-carboxamide]: 18 µM; `Cc1nsc(Nc2cnc(C(F)(F)F)cn2)c1C(=O)Nc1ccc(F)c(OC2CCN(C(=O)OC(C)(C)C)CC2)c1` [Example 229, tert-butyl 4-(2-fluoro-5-{[(3-methyl-5-{[5-(trifluoromethyl)pyrazin-2-yl]amino}-1,2-thiazol-4-yl)carbonyl]amino}phenoxy)piperidine-1-carboxylate]: greater than 20 µM.
